From patent US20230295200A1 (REGENTS OF THE UNIVERSITY OF MICHIGAN, priority 2022, published 2023)

Columns and labels:
[1] = molecular target: T1, STAT5A (Homo sapiens, UniProt P42229); assay: Fluorescence polarization (FP) binding assay, STAT5A; conditions: FP competition, 5 nM fluorescein-labeled tracer, 200 nM protein, PBS pH7.4
T1 sequence (P42229 1-794): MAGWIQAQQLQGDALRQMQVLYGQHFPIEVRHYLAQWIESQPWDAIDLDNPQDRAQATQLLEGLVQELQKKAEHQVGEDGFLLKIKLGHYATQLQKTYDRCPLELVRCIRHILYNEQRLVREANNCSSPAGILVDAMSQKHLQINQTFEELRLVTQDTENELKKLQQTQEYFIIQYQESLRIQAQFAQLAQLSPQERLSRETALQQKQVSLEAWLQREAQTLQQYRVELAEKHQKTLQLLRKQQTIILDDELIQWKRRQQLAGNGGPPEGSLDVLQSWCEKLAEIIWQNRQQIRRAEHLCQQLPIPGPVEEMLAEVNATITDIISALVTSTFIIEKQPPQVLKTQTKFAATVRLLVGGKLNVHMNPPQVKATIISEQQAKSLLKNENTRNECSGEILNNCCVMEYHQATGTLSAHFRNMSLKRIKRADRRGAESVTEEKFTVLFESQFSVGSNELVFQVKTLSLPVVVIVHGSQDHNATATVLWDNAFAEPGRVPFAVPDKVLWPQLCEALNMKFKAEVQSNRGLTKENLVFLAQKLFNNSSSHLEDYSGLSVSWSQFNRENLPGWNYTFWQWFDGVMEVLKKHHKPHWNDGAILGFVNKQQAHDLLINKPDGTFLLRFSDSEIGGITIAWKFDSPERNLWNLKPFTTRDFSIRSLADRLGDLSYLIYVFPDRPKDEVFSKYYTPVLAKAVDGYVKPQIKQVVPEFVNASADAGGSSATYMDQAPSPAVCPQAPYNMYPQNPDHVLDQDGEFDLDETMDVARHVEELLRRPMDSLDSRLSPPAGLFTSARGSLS
Procedure, shortened: (§1)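 Fluorescein-labelled tracer (5 nM) with 200 nM STAT5 and/or STAT6 protein in PBS pH 7.4, 0.01% BGG, 0.01% Tween-20, 2 mM DTT. Mixed 15 min, then equilibrated 1 h at room temperature; read by fluorescence polarization, constants from nonlinear curve fitting.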

[2] = molecular target: T2, STAT6 protein (Homo sapiens, UniProt P42226); assay: Fluorescence polarization (FP) binding assay, STAT6; conditions: FP competition, 5 nM fluorescein-labeled tracer, 200 nM protein, PBS pH7.4; read-out: Binding STAT6
T2 sequence (P42226 1-847): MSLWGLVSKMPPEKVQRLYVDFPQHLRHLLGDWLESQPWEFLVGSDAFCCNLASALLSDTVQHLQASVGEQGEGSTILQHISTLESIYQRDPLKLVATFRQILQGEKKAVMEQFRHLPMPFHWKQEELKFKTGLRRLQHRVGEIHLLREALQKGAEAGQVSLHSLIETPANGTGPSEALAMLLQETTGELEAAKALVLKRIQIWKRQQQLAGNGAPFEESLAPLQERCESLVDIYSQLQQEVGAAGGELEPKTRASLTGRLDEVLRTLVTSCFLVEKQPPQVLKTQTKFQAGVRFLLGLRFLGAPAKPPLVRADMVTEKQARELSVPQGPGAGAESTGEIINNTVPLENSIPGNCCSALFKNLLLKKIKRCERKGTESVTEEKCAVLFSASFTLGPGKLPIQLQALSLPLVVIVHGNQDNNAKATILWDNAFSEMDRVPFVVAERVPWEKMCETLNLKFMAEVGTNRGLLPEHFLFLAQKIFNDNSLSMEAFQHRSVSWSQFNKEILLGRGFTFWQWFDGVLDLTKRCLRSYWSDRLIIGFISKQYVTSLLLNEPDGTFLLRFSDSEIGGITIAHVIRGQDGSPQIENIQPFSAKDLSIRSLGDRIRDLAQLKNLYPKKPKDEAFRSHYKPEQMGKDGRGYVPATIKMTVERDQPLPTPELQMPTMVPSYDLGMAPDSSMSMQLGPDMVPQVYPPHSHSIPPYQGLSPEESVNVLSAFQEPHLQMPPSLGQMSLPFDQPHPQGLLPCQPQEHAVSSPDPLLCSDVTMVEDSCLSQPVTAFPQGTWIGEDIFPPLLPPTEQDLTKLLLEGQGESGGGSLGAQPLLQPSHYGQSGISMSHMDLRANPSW
Procedure, shortened: as §1

| Compound | Ki [1] | Ki [2] |
| --- | --- | --- |
| CN(C)C(=O)CCN(C(=O)[C@@H]1CCCN1C(=O)[C@@H](NC(=O)c1cc2cc(C(F)(F)P(=O)(O)O)ccc2s1)C(C)(C)C)c1ccc(-c2nccs2)cc1 [Compound 309, ((2-(((S)-1-((S)-2-((3-(dimethylamino)-3-oxopropyl)(4-(thiazol-2-yl)phenyl)carbamoyl)pyrrolidin-1-yl)-3,3-dimethyl-1-oxobutan-2-yl)carbamoyl)benzo[b]thiophen-5-yl)difluoromethyl)phosphonic acid] | 1 to 10 µM | 100 to 1000 nM |
| CC(C)(C)[C@H](NC(=O)c1cc2cc(C(F)(F)P(=O)(O)O)ccc2s1)C(=O)N1Cc2ccccc2CC1C(=O)N1CCC[C@H](c2ccccc2)C1 (stereo partly drawn) [Compound 190, ((2-(((2S)-3,3-dimethyl-1-oxo-1-(3-((R)-3-phenylpiperidine-1-carbonyl)-3,4-dihydroisoquinolin-2(1H)-yl)butan-2-yl)carbamoyl)benzo[b]thiophen-5-yl)difluoromethyl)phosphonic acid] | 1 to 10 µM | 100 to 1000 nM |
| CC(C)(C)[C@H](NC(=O)c1cc2cc(C(F)(F)P(=O)(O)O)ccc2s1)C(=O)N1Cc2ccccc2[C@H]1C(=O)N1CCC[C@H](c2ccccc2)C1 [Compound 196, ((2-(((S)-3,3-dimethyl-1-oxo-1-((S)-1-((R)-3-phenylpiperidine-1-carbonyl)isoindolin-2-yl)butan-2-yl)carbamoyl)benzo[b]thiophen-5-yl)difluoromethyl)phosphonic acid] | 1 to 10 µM | < 100 nM |
| CC(C)(C)[C@H](NC(=O)c1cc2cc(C(F)(F)P(=O)(O)O)ccc2[nH]1)C(=O)N1CCC[C@H]1c1nc(Cc2ccccc2)cs1 [Compound 17, ((2-(((S)-1-((S)-2-(4-benzylthiazol-2-yl)pyrrolidin-1-yl)-3,3-dimethyl-1-oxobutan-2-yl)carbamoyl)-1H-indol-5-yl)difluoromethyl)phosphonic acid] | 1 to 10 µM | 1000 to 10000 nM |

The next lines start with the values.

| Ki [1] | Ki [2] | Compound |
| --- | --- | --- |
| 1 to 10 µM | 100 to 1000 nM | CC(=O)N1CC[C@H]2CC[C@@H](C(=O)N3CCS(=O)(=O)C(c4ccccc4)C3)N2C(=O)[C@@H](NC(=O)c2cc3cc(C(F)(F)P(=O)(O)O)ccc3s2)C1 (stereo partly drawn) [Compound 178, ((2-(((5S,8S,10aR)-3-acetyl-8-(1,1-dioxido-2-phenylthiomorpholine-4-carbonyl)-6-oxodecahydropyrrolo[1,2-a][1,5]diazocin-5-yl)carbamoyl)benzo[b]thiophen-5-yl)difluoromethyl)phosphonic acid] |
| > 10 µM | 1000 to 10000 nM | CC(=O)N1CCN(C(=O)[C@@H](NC(=O)c2cc3cc(C(F)(F)P(=O)(O)O)ccc3s2)C(C)(C)C)[C@H](C(=O)N2CCO[C@@H](c3ccccc3)C2)C1 [Compound 171, ((2-(((S)-1-((S)-4-acetyl-2-((S)-2-phenylmorpholine-4-carbonyl)piperazin-1-yl)-3,3-dimethyl-1-oxobutan-2-yl)carbamoyl)benzo[b]thiophen-5-yl)difluoromethyl)phosphonic acid] |
| > 10 µM | 1000 to 10000 nM | CC(C)(C)[C@H](NC(=O)c1cc2cc(C(F)(F)P(=O)(O)O)ccc2s1)C(=O)N1CCC[C@H]1C(=O)N(Cc1ccccc1)C1CCCCC1 [Compound 75, ((2-(((S)-1-((S)-2-(benzyl(cyclohexyl)carbamoyl)pyrrolidin-1-yl)-3,3-dimethyl-1-oxobutan-2-yl)carbamoyl)benzo[b]thiophen-5-yl)difluoromethyl)phosphonic acid] |
| > 10 µM | 1000 to 10000 nM | Cc1ccccc1C1CCCN(C(=O)[C@@H]2CCCN2C(=O)[C@@H](NC(=O)c2cc3cc(C(F)(F)P(=O)(O)O)ccc3s2)C(C)(C)C)C1 (stereo partly drawn) [Compound 105, ((2-(((2S)-3,3-dimethyl-1-oxo-1-((2S)-2-(3-(o-tolyl)piperidine-1-carbonyl)pyrrolidin-1-yl)butan-2-yl)carbamoyl)benzo[b]thiophen-5-yl)difluoromethyl)phosphonic acid] |
